Source: US11440886B2, “Anti-inflammatory compound, and preparation and use thereof” (E-Nitiate Biopharmaceuticals (Hangzhou) Co., Ltd., priority 2018, dated 2022)

How the values were obtained:
eczema = conditions: patients with eczema; cited from earlier work
cytokine release = conditions: background statement; cited from earlier work
PDE4 = conditions: background statement; cited from earlier work
[1] = biological target: human recombinant PDE4B1 enzyme (Homo sapiens (Human), UniProt Q07343); assay: Inhibition of PDE4B1 activity by cAMP HTRF assay; assay type: biochemical; conditions: human recombinant PDE4B1, cAMP 40 nM, pH 7.4
How it was run: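 Recombinant human PDE4B1 (4.8 U) was preincubated 10 min with compound in HBSS/HEPES/MgCl2/BSA, pH 7.4, then 40 nM cAMP was added for 60 min at RT. Remaining cAMP was read by HTRF after IBMX stop; IC50 from eight concentrations in duplicate, repeated twice.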

[2] = test system: human peripheral blood mononuclear cells (PBMCs); assay: Inhibition of LPS-induced TNFα release by peripheral blood mononuclear cells (PBMCs); assay type: cell-based; conditions: PBMC, TNFα level in supernatant, LPS 1 ug/mL, 24 hours, Luminex
Description: Inhibition of the compounds on proinflammatory cytokine release by peripheral blood mononuclear cells (PBMCs)
The effect of the compounds on the release characteristics of TNFa cytokines in frozen human peripheral blood mononuclear cells (PBMCs) was determined.
Fresh human PBMCs were isolated, and suspended in a fresh medium. The PBMC medium (CM) is RPMI1640 containing 10% FBS, 1% PBS, and 2 mM L-glutamine. The cells were plated at a density of 2*10^5 cells/well (100 ul). The test compound was dissolved in DMSO to form a 10 mM sample (DMSO, 100%). The compound was diluted with PBMC medium to the required concentrations. The sample (50 uL) was incubated for 1 hr with cells at 37° C., 5% CO2, after which the inducer (LPS, 1 ug/mL) was added. The inducer+vehicle (LPS+0.05% DMSO) was used as a control in this experiment. The vehicle without inducer was used as a negative control. Crisaborole was used as a positive control. After 24 hours of incubation, the supernatant was extracted and stored at −80° C. The supernatant was thawed and the TNFα level in the supernatant was measured by Luminex4-plex assay.

human recombinant PDE4B1 enzyme, sequence (Q07343 whole entry): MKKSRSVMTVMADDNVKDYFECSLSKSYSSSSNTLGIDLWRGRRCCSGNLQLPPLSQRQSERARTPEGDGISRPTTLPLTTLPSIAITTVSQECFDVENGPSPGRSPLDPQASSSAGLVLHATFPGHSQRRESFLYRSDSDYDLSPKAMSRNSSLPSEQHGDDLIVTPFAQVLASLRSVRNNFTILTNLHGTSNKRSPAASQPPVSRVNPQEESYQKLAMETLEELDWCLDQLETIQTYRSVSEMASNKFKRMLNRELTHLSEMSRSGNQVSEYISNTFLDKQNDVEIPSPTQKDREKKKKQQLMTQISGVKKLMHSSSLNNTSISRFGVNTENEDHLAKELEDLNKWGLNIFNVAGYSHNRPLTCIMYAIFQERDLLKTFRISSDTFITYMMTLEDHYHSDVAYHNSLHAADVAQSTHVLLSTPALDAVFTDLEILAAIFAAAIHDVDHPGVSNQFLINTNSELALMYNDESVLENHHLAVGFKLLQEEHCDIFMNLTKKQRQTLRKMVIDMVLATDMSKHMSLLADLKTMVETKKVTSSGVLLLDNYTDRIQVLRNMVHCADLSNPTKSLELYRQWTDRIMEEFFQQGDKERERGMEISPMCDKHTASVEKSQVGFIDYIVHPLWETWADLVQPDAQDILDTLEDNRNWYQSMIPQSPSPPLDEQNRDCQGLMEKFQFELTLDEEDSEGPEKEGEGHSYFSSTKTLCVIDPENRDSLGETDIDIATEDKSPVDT

Compound | clinical effect on eczema higher than that of the blank control (eczema) | proportion of patients who cannot benefit (eczema) | cell activity inhibiting cytokine release (cytokine release) | enzyme inhibition activity (PDE4) | IC50 [1] [nM] | EC50 [2] [nM]
N#Cc1ccc(Oc2ccc3c(c2)COB3O)cc1 [Crisaborole] | about 10% | about 50% | about 500 nM | about 100 nM | – | –
COc1ccc(/C=C/n2c(C)cc(=O)cc2C)cc1OCCSC [Example 77, (E)-1-(3-methylthioethoxy-4-methoxystyryl)-2,6-dimethylpyridin-4(1H)-one] | – | – | – | – | 26.4 | 11
COc1ccc(/C=C/n2c(C)cc(=O)cc2C)cc1OC1CCSC1 (stereo not shown) [Example 80, (E)-1-((3-(tetrahydrothiophen-3-yl)oxy-4-methoxy)-styryl)-2,6-dimethylpyridin-4(1H)-one] | – | – | – | – | 7 | < 5
Cc1cc(=O)cc(C)n1/C=C/c1ccc(OC(F)F)c(OCC2CC2)c1 [Example 88, (E)-1-(3-(cyclopropylmethoxy)-4-(difluoromethoxy)styryl)-2,6-dimethylpyridin-4(1H)-one] | – | – | – | – | 2.8 | < 5
